In patent US7388014B2, “Quinazoline derivatives and therapeutic use thereof” (Rexahn Pharmaceuticals, Inc., priority 2004, dated 2008):
pIC50: −log10 of the molar value.

Columns and labels:
Lox IMVI = experiment: Cell growth inhibition assay (SRB), Lox IMVI; type: cell-based, Human; settings: Lox IMVI (melanoma), 96 hours
Text: (§1) Cancer cells used in this study to determine the effect of quinazoline compounds were obtained from the following sources: Human OVCAR-3 (ovary), MCF-7 (breast, hormone-dependent), Hs 578T (breast), MDA-MB-231 (breast), HeLa (cervix), PC3 (prostate), HepG2 (liver), A549 (lung), Caki-1 (kidney), HT-29 (colon), HCT116 (colon) and PANC-1 (pancreas) from the American Type Culture Collection (ATCC) (Manassas, Va.); U251 (brain) from Riken (Japan); MKN-45 (stomach) from DSMZ (Germany); UMRC2 (kidney) and Lox IMVI (melanoma) from the United States National Cancer Institute (Bethesda, Md.). All cell lines except Hs 578T, MDA-MB-231, HCT116, UMRC2, Caki-1 and PANC-1 were grown in RPMI1640 medium (Invitrogen, Carlsbad, Calif.) supplemented with 10% fetal bovine serum (“FBS”), 1 mM sodium pyruvate, 10 mM HEPES and 100 U/ml penicillin and 100 μg/ml streptomycin (“P/S”). Hs 578T, MDA-MB-231, HCT116, UMRC2, Caki-1 and PANC-1 cells were maintained in Dulbecco's modified Eagle's medium (“DMEM”, Invitrogen) supplemented with 10% FBS, P/S, 10 mM HEPES and 2 mM L-glutamine. All cells were incubated at 37° C. under humidified 5% CO2.
(§2) The growth inhibition of the substituted quinazoline derivative compounds against a variety of human tumor cells was evaluated. The relative importance of particular substituent groups on the compounds was also studied. The substituted quinazoline derivative compounds, prepared as described above, were tested, along with DMSO as a control.
(§3) The growth inhibition assay of various compounds against 15 human tumor cell lines was performed using the Sulforhodamnine B (“SRB”) method (Skehan et al., J. National Cancer Institute, 82: 1107-1112 (1990)). Briefly, exponentially growing tumor cells were seeded into a 96-well plate at a density of 2-3×10^3 cells/well and treated with quinazoline compounds the next day. Triplicate wells were used for each treatment. The cells were. incubated with the various compounds for 96 hours at 37° C. in a humidified 5% CO2 atmosphere. After 96-hour incubation, cells were fixed with 10% trichloroacetic acid (“TCA”), incubated for 1 hour at 4° C., and washed 3 times with tap water. Subsequently cells were stained with 0.4% sulforhodamine B in 1% acetic acid for 30 minutes, washed 4 times with 1% acetic acid, and air-dried again. After 5 minutes agitation in 10 mM Tris solution, the absorbance of each well was measured at 530 nm using Benchmark Plus Microplate reader (Bio-Rad Laboratories, Hercules, Calif.).
(§4) To translate the OD530 values into the number of live cells in each well, the OD530 values were compared to those on standard OD530—versus—cell number curves generated for each cell line. The percent survival was calculated using the formula: % Survival=live cell number [test]/live cell number [control]×100
(§5) The IC50 values were calculated by non-linear regression analysis.

HT-29 = experiment: Cell growth inhibition assay (SRB), HT-29; type: cell-based, Human; settings: HT-29 (colon), 96 hours
Text: as §1, §2, §3, §4, §5

PC3 = experiment: Cell growth inhibition assay (SRB), PC3; type: cell-based, Human; settings: PC3 (prostate), 96 hours
Text: as §1, §2, §3, §4, §5

MCF-7 = experiment: Cell growth inhibition assay (SRB), MCF-7; type: cell-based, Human; settings: MCF-7 (breast, hormone-dependent), 96 hours
Text: as §1, §2, §3, §4, §5

Hs 578T = experiment: Cell growth inhibition assay (SRB), Hs 578T; type: cell-based, Human; settings: Hs 578T (breast), 96 hours
Text: as §1, §2, §3, §4, §5

HeLa = experiment: Cell growth inhibition assay (SRB), HeLa; type: cell-based, Human; settings: HeLa (cervix), 96 hours
Text: as §1, §2, §3, §4, §5

[1] = system: 15 human tumor cell lines; experiment: Cell growth inhibition assay (SRB), summary over the panel of cell lines; type: cell-based; settings: four of the tested cell lines
Text: Cancer cells used in this study to determine the effect of quinazoline compounds were obtained from the following sources: Human OVCAR-3 (ovary), MCF-7 (breast, hormone-dependent), Hs 578T (breast), MDA-MB-231 (breast), HeLa (cervix), PC3 (prostate), HepG2 (liver), A549 (lung), Caki-1 (kidney), HT-29 (colon), HCT116 (colon) and PANC-1 (pancreas) from the American Type Culture Collection (ATCC) (Manassas, Va.); U251 (brain) from Riken (Japan); MKN-45 (stomach) from DSMZ (Germany); UMRC2 (kidney) and Lox IMVI (melanoma) from the United States National Cancer Institute (Bethesda, Md.). […]
The growth inhibition of the substituted quinazoline derivative compounds against a variety of human tumor cells was evaluated. […]
The growth inhibition assay of various compounds against 15 human tumor cell lines was performed using the Sulforhodamnine B (“SRB”) method (Skehan et al., J. National Cancer Institute, 82: 1107-1112 (1990)). […] After 5 minutes agitation in 10 mM Tris solution, the absorbance of each well was measured at 530 nm using Benchmark Plus Microplate reader (Bio-Rad Laboratories, Hercules, Calif.). […]
The IC50 values were calculated by non-linear regression analysis. […]

UMRC2 = experiment: Cell growth inhibition assay (SRB), UMRC2; type: cell-based, Human; settings: UMRC2 (kidney), 96 hours
Text: as §1, §2, §3, §4, §5

MKN-45 = experiment: Cell growth inhibition assay (SRB), MKN-45; type: cell-based, Human; settings: MKN-45 (stomach), 96 hours
Text: as §1, §2, §3, §4, §5

MDA-MB-231 = experiment: Cell growth inhibition assay (SRB), MDA-MB-231; type: cell-based, Human; settings: MDA-MB-231 (breast), 96 hours
Text: as §1, §2, §3, §4, §5

U251 = experiment: Cell growth inhibition assay (SRB), U251; type: cell-based, Human; settings: U251 (brain), 96 hours
Text: as §1, §2, §3, §4, §5

HepG2 = experiment: Cell growth inhibition assay (SRB), HepG2; type: cell-based, Human; settings: HepG2 (liver), 96 hours, read-out: Inhibition of cell growth (IC50, μM) HepG 2
Text: as §1, §2, §3, §4, §5

A549 = experiment: Cell growth inhibition assay (SRB), A549; type: cell-based, Human; settings: A549 (lung), 96 hours
Text: as §1, §2, §3, §4, §5

PANC-1 = experiment: Cell growth inhibition assay (SRB), PANC-1; type: cell-based, Human; settings: PANC-1 (pancreas), 96 hours
Text: as §1, §2, §3, §4, §5

Caki-1 = experiment: Cell growth inhibition assay (SRB), Caki-1; type: cell-based, Human; settings: Caki-1 (kidney), 96 hours
Text: as §1, §2, §3, §4, §5

OVCAR-3 = experiment: Cell growth inhibition assay (SRB), OVCAR-3; type: cell-based, Human; settings: OVCAR-3 (ovary), 96 hours
Text: as §1, §2, §3, §4, §5

IC50 (HT-29): 0.24 µM | IC50 (PC3): 1.03 µM | IC50 (MCF-7): 0.11 µM | IC50 (HeLa): 1.06 µM | pIC50 [1]: > 6.70 | IC50 (MKN-45): 0.1 µM | IC50 (MDA-MB-231): 0.53 µM | IC50 (U251): 0.13 µM | IC50 (HepG2): 0.18 µM | IC50 (A549): 0.66 µM | IC50 (PANC-1): > 3 µM | IC50 (OVCAR-3): 0.48 µM
Compound: CC(C)Nc1ncnc2cc3[nH]cnc3cc12 [RX-1834]
IC50 (Lox IMVI): 0.67 µM | IC50 (Hs 578T): 0.79 µM | IC50 (UMRC2): 2.24 µM | IC50 (Caki-1): 0.65 µM
